Test results taken from patent US20240216395A1, “19-NOR C3,3-DISUBSTITUTED C21 -N-PYRAZOLYL STEROID FOR USE IN TREATING MAJOR DEPRESSIVE DISORDER AND […]” (priority 2021, published 2024).

How the values were obtained:
[1] = tested on: nondependent, recreational users of CNS depressants; test: Abuse potential study, dose selection phase: TEAEs; type: in vivo, human
Description: After a screening period of up to 21 days, eligible participants were randomized 3:1 to receive single escalating doses of Compound (1) (60, 80, or 90 mg) or matching placebo in 3 separate cohorts; Compound (1) was administered during 4 days of inpatient administration (FIG. 30A). Sentinel dosing was employed for each cohort, with one participant randomized to receive Compound (1) and one to receive placebo on Day 1. The remaining 6 participants (Compound (1), 5; placebo, 1) were dosed approximately 24 hours later after monitoring the safety and tolerability endpoints. Dose-escalation cohorts were separated by at least 7 days. If a dose was not well tolerated based on the safety data, doses in subsequent cohorts were to be modified, and Compound (1) dose was not allowed to exceed 90 mg. Participants underwent a 1-day, follow-up visit 7 (±2) days after the end of the treatment and were not permitted to participate in the main study.
For the first part, dose selection, endpoints included the observer-rated Modified Observer's Assessment of Alertness/Sedation (MOAA/S) scores along with safety and tolerability endpoints which included the Columbia-Suicide Severity Rating Scale (C-SSRS), frequency and severity of adverse events (AE) and serious adverse events (SAEs), and changes from baseline in clinical laboratory assessments, vital signs, and electrocardiogram (ECG).
The dose selection safety set included all participants who received 1 dose of Compound (1). The main study qualification safety set included all participants who received ≥1 dose of alprazolam. For the treatment phase, the randomized set included all participants who were randomized and the safety set included all participants who received ≥1 dose of Compound (1) or alprazolam. The completer set included all participants in the randomized set who completed all treatment periods, had sufficient data for evaluation of the primary endpoint, and had ≥1 observation within 2 hours of Tmax for each treatment for Drug Liking VAS scores. […] The PK set included all participants in the treatment phase who received 1 dose of Compound (1) and had 1 PK sample after dosing.

[2] = tested on: nondependent, recreational users of CNS depressants; test: Abuse potential study: MOAA/S sedation scores (dose selection and main study); type: in vivo, human; conditions: dose selection, 60, 80 or 90 mg
Description: The first part of the study, dose selection, was a 3-cohort, randomized, double-blind, placebo-controlled, dose-escalation design to identify 2 doses higher than Compound (1)'s anticipated therapeutic dose (30 mg) to carry forward into the main study (FIG. 30A-30B) (U.S. Department of Health and Human Services Food and Drug Administration, Center for Drug Evaluation and Research (CDER). Assessment of abuse potential of drugs: guidance for industry. January, 2017; Griffiths R R, et al. Drug Alcohol Depend. 2003; 70(3):S41-54; Schoedel K, Sellers E. Clin Pharmacol Ther. 2008; 83(4):622-626). The 2 doses were selected based on their safety and tolerability in the dose selection phase, as assessed during sentinel dosing (described below) by the safety and tolerability endpoints (described below). […]
MOAA/S scores were assessed before dose administrations and at multiple time points (1, 2, 3, 4, 5, 6, 7, 8, 10, 12, and 24 hours) after dosing using a 6-point scale, ranging from 0 (no response after painful trapezius squeeze) to 5 (responds readily to name spoken in a normal tone; Table 18). Electrocardiogram measures and the C-SSRS were assessed during screening, admission, at Day 3, and/or at early termination, and AEs/SAEs were assessed on an ongoing basis during enrollment in the study. […]

In the case of C[C@@]1(O)CC[C@H]2[C@H](CC[C@@H]3[C@@H]2CC[C@]2(C)[C@@H](C(=O)Cn4cc(C#N)cn4)CC[C@@H]32)C1 [Compound (1), 1-(2-((3R,5R,8R,9R,10S,13S,14S,17S)-3-hydroxy-3,13-dimethylhexadecahydro-1H-cyclopenta[a]phenanthren-17-yl)-2-oxoethyl)-1H-pyrazole-4-carbonitrile], the “Any TEAE” value ([1]; 60 mg (n = 6)) is reported as 5 (83.3) n (%), the “Asthenopia (TEAE)” value ([1]; 60 mg (n = 6)) is reported as 0 n (%) and the “Blood bilirubin increased (TEAE)” value ([1]; 60 mg (n = 6)) is reported as 0 n (%). For the same compound, the “Disturbance in attention (TEAE)” value ([1]; 60 mg (n = 6)) was 0 n (%), the “Dizziness postural (TEAE)” value ([1]; 60 mg (n = 6)) was 1 (16.7) n (%) and the “Euphoric mood (TEAE)” value ([1]; 60 mg (n = 6)) was 0 n (%). For the same compound, the “Feeling abnormal (TEAE)” value ([1]; 60 mg (n = 6)) was 0 n (%), the “Feeling hot (TEAE)” value ([1]; 60 mg (n = 6)) was 0 n (%) and the “Feeling of relaxation (TEAE)” value ([1]; 60 mg (n = 6)) was 0 n (%). The “Headache (TEAE)” value ([1]; 60 mg (n = 6)) was 1 (16.7) n (%), the “Hunger (TEAE)” value ([1]; 60 mg (n = 6)) was 0 n (%) and the “Hyperhidrosis (TEAE)” value ([1]; 60 mg (n = 6)) was 0 n (%). For the same compound, the “Irritability (TEAE)” value ([1]; 60 mg (n = 6)) was 0 n (%), the “Lacrimation increased (TEAE)” value ([1]; 60 mg (n = 6)) was 0 n (%) and the “Mild TEAE” value ([1]; 60 mg (n = 6)) was 5 (83.3) n (%). The “Moderate TEAE” value ([1]; 60 mg (n = 6)) was 0 n (%), the “Orthostatic HR response increase (TEAE)” value ([1]; 60 mg (n = 6)) was 1 (16.7) n (%) and the “Paresthesia (TEAE)” value ([1]; 60 mg (n = 6)) was 0 n (%). The “Somnolence (TEAE)” value ([1]; 60 mg (n = 6)) was 4 (66.7) n (%), the “Toothache (TEAE)” value ([1]; 60 mg (n = 6)) was 0 n (%) and the “Tremor (TEAE)” value ([1]; 60 mg (n = 6)) was 0 n (%). For the same compound, the “Vision blurred (TEAE)” value ([1]; 60 mg (n = 6)) was 0 n (%), the “Yawning (TEAE)” value ([1]; 60 mg (n = 6)) was 0 n (%) and the “Any TEAE” value ([1]; 80 mg (n = 6)) was 5 (83.3) n (%). The “Asthenopia (TEAE)” value ([1]; 80 mg (n = 6)) was 1 (16.7) n (%), the “Blood bilirubin increased (TEAE)” value ([1]; 80 mg (n = 6)) was 0 n (%) and the “Disturbance in attention (TEAE)” value ([1]; 80 mg (n = 6)) was 1 (16.7) n (%). The “Dizziness postural (TEAE)” value ([1]; 80 mg (n = 6)) was 2 (33.3) n (%), the “Euphoric mood (TEAE)” value ([1]; 80 mg (n = 6)) was 1 (16.7) n (%) and the “Feeling abnormal (TEAE)” value ([1]; 80 mg (n = 6)) was 0 n (%). For the same compound, the “Feeling hot (TEAE)” value ([1]; 80 mg (n = 6)) was 0 n (%), the “Feeling of relaxation (TEAE)” value ([1]; 80 mg (n = 6)) was 2 (33.3) n (%) and the “Headache (TEAE)” value ([1]; 80 mg (n = 6)) was 0 n (%). For the same compound, the “Hunger (TEAE)” value ([1]; 80 mg (n = 6)) was 0 n (%), the “Hyperhidrosis (TEAE)” value ([1]; 80 mg (n = 6)) was 0 n (%) and the “Irritability (TEAE)” value ([1]; 80 mg (n = 6)) was 1 (16.7) n (%). The “Lacrimation increased (TEAE)” value ([1]; 80 mg (n = 6)) was 0 n (%), the “Mild TEAE” value ([1]; 80 mg (n = 6)) was 5 (83.3) n (%) and the “Moderate TEAE” value ([1]; 80 mg (n = 6)) was 0 n (%). For the same compound, the “Orthostatic HR response increase (TEAE)” value ([1]; 80 mg (n = 6)) was 0 n (%), the “Paresthesia (TEAE)” value ([1]; 80 mg (n = 6)) was 1 (16.7) n (%) and the “Somnolence (TEAE)” value ([1]; 80 mg (n = 6)) was 5 (83.3) n (%). For the same compound, the “Toothache (TEAE)” value ([1]; 80 mg (n = 6)) was 0 n (%), the “Tremor (TEAE)” value ([1]; 80 mg (n = 6)) was 0 n (%) and the “Vision blurred (TEAE)” value ([1]; 80 mg (n = 6)) was 1 (16.7) n (%). For the same compound, the “Yawning (TEAE)” value ([1]; 80 mg (n = 6)) was 0 n (%), the “Moderate TEAEs” value ([1]; 90 mg) was “one instance of somnolence” and the “Any TEAE” value ([1]; 90 mg (n = 6)) was 6 (100) n (%). For the same compound, the “Asthenopia (TEAE)” value ([1]; 90 mg (n = 6)) was 0 n (%), the “Blood bilirubin increased (TEAE)” value ([1]; 90 mg (n = 6)) was 0 n (%) and the “Disturbance in attention (TEAE)” value ([1]; 90 mg (n = 6)) was 0 n (%). The “Dizziness postural (TEAE)” value ([1]; 90 mg (n = 6)) was 0 n (%), the “Euphoric mood (TEAE)” value ([1]; 90 mg (n = 6)) was 4 (66.7) n (%) and the “Feeling abnormal (TEAE)” value ([1]; 90 mg (n = 6)) was 1 (16.7) n (%). The “Feeling hot (TEAE)” value ([1]; 90 mg (n = 6)) was 0 n (%), the “Feeling of relaxation (TEAE)” value ([1]; 90 mg (n = 6)) was 1 (16.7) n (%) and the “Headache (TEAE)” value ([1]; 90 mg (n = 6)) was 0 n (%). For the same compound, the “Hunger (TEAE)” value ([1]; 90 mg (n = 6)) was 0 n (%), the “Hyperhidrosis (TEAE)” value ([1]; 90 mg (n = 6)) was 1 (16.7) n (%) and the “Irritability (TEAE)” value ([1]; 90 mg (n = 6)) was 1 (16.7) n (%). The “Lacrimation increased (TEAE)” value ([1]; 90 mg (n = 6)) was 0 n (%), the “Mild TEAE” value ([1]; 90 mg (n = 6)) was 5 (83.3) n (%) and the “Moderate TEAE” value ([1]; 90 mg (n = 6)) was 1 (16.7) n (%). The “Orthostatic HR response increase (TEAE)” value ([1]; 90 mg (n = 6)) was 0 n (%), the “Paresthesia (TEAE)” value ([1]; 90 mg (n = 6)) was 0 n (%) and the “Somnolence (TEAE)” value ([1]; 90 mg (n = 6)) was 4 (66.7) n (%). For the same compound, the “Toothache (TEAE)” value ([1]; 90 mg (n = 6)) was 0 n (%), the “Tremor (TEAE)” value ([1]; 90 mg (n = 6)) was 1 (16.7) n (%) and the “Vision blurred (TEAE)” value ([1]; 90 mg (n = 6)) was 0 n (%). The “Yawning (TEAE)” value ([1]; 90 mg (n = 6)) was 1 (16.7) n (%), the “Blood bilirubin increased (TEAE)” value ([1]; All doses (n = 18)) was 0 n and the “Feeling hot (TEAE)” value ([1]; All doses (n = 18)) was 0 n. The “Hunger (TEAE)” value ([1]; All doses (n = 18)) was 0 n, the “Lacrimation increased (TEAE)” value ([1]; All doses (n = 18)) was 0 n and the “Toothache (TEAE)” value ([1]; All doses (n = 18)) was 0 n. The “Time for all MOAA/S scores to return to baseline score of 5” value [2] was no more than 8 hours postdose and the “MOAA/S score (mild sedation) in 1 to 4 participants of at least 1 cohort” value ([2]; 2-7 hours postdose) was 2-4.
